Data published in paper PMC4915154, “Development of background-free tame fluorescent probes for intracellular live cell imaging” (Nature Communications, 2016).

How the values were obtained:
[1] = system: mitochondria in U-2 OS cells; experiment: Mitochondria labelling with AzG-1 in cells pre-treated with TPP-BCN; format: cell-based, human; settings: U-2 OS cells pre-treated with TPP-BCN, 10 μM AzG-1, 2 h
Method: (§1) Excited with the results, we further challenged the model and developed another ‘tame' azide-bearing probe, AzG-1, to label molecules in mitochondria and the fancy tubulin protein in living cells (Figs 4a,b). To target mitochondria, U-2 OS cells were pre-treated with TPP-BCN (an analogue of triphenylphosphonium) before labelled with 10 μM AzG-1. For tubulin labelling, a cyclooctyne-containing UAA, N-ɛ-(cyclooct-2-yn-1-yloxy)carbonyl)L-lysine (CoK) was selected for incorporating into tubulin and reacting with AzG-1 via SPAAC.[29] CHO-K1 cells were co-transfected with plasmids pCoKRS-tRNA and pTub-26TAG to incorporate CoK into α-tubulin at position 26. Site-specific incorporation of CoK using an orthogonal tRNA^Pyl/CoKRS pair was confirmed via western blot analysis (Supplementary Figs. 19 and 20). After incorporation of CoK, cells were then labelled with 10 μM AzG-1 at 37 °C. CHO-K1 cells transfected with plasmid pEGFP-Tubwt expressing EGFP-fused wild-type α-tubulin was used as a control. Confocal fluorescence images were then taken AW of unreacted AzG-1.
(§2) Figure 4 Live cell imaging with AzG-1 (a) Chemical structures of azide-bearing probe AzG-1 and its descriptor values. […] (c) Fluorescence imaging of mitochondria in U-2 OS cells labelled with AzG-1. […] (d) Fluorescence imaging of α-tubulin in live CHO-K1 cells. […]

[2] = system: CoK-bearing α-tubulin in CHO-K1 cells; experiment: Protein labelling on live cells using CoK (α-tubulin), CHO-K1; format: cell-based; settings: CoK at position 26 of α-tubulin, 10 μM AzG-1, 2 h, 37 °C
Method: as §1, §2

[3] = system: CoK-bearing α-tubulin in HeLa cells; experiment: Protein labelling on live cells using CoK (α-tubulin), HeLa; format: cell-based; settings: CoK-bearing α-tubulin versus wild type
Method: CHO-K1 or HeLa cells were grown in DMEM-low glucose 1 g l^−1 (Gibco) supplemented with 10% FBS (Gibco) in eight-well plate (ibid). At 70∼80% confluency, cells were transfected using 4 μl iN-fect in vitro transfection reagent with 100 ng pCoKRS-tRNA and 900 ng pTub-26TAG or with 900 ng pTubwt. After 6 h of incubation, media was replaced with fresh media (DMEM-low glucose medium with 10% FBS, 1% Pen-Strep, 2 Mm […]) containing 0.25 Mm CoK. After an additional 36 h, media was exchanged with normal growth media without CoK and cells were incubated for 2 h and washed (four times) to remove remaining CoK. Next, growth media containing 1 μM AzG-1 was added to the plates, and cells were incubated for 2 h with four times of washing (30 min each time) using growth media. High-resolution images of live cells were obtained using a Zeiss LSM510 META laser scanning confocal microscope.
Supplementary Figure 21 Fluorescence imaging of α-tubulin in live HeLa.
HeLa cells were co-transfected with plasmids pCoKRS-tRNA and pTub-26TAG or plasmid pTubwt followed by sequential treatment with CoK and AzG-1 as described above. Live cell […]
in HeLa cells. Scale bar, 10 μm.
(1 picture or pasted object on this page, not shown here)

## CC1=CC(C)=[N+]2C1=C(CCC(=O)NCCN=[N+]=[N-])c1c(C)cc(C)n1[B-]2(F)F [AzG-1]
[1]
  Labelling of mitochondria: specifically labelled mitochondria
[2]
  Labelling of α-tubulin: conjugated specifically with CoK-bearing α-tubulin
[3]
  Labelling of α-tubulin: conjugated specifically with CoK-bearing α-tubulin
